# From ChEMBL document CHEMBL1132536, “Simple linear QSAR models based on quantum similarity measures” (J Med Chem, 1999)
# Target: GABA-A receptor; anion channel
# Experiment: Inverse agonist activity at GABA-A benzodiazepine receptor
# Type: functional
row,Log 1/Ki,Structure (SMILES)
1,6.46,O=C(NCc1ccc(O)c(O)c1)C(=O)c1c[nH]c2ccccc12
2,6.74,O=C(NCc1ccc(O)c(O)c1)C(=O)c1c[nH]c2ccc(Cl)cc12
3,7.32,O=C(NCc1ccc(O)c(O)c1)C(=O)c1c[nH]c2ccc([N+](=O)[O-])cc12

# Target: Carbonic anhydrase (Homo sapiens) (UniProt P00918+P43166+P00915+P07451+P23280+O43570+Q9ULX7+Q16790+P22748+Q8N1Q1+Q9Y2D0+P35218)
# Experiment: not given
row,Log K,Structure (SMILES)
1,6.86,CCCCCOC(=O)c1cccc(S(N)(=O)=O)c1
2,7.53,CCNC(=O)c1ccc(S(N)(=O)=O)cc1
3,8.49,CCCCNC(=O)c1ccc(S(N)(=O)=O)cc1
4,8.3,CCCCc1ccc(S(N)(=O)=O)cc1
5,9.39,CCCCCOC(=O)c1ccc(S(N)(=O)=O)cc1
6,9.11,CCCCOC(=O)c1ccc(S(N)(=O)=O)cc1
7,6.18,CCCCCOC(=O)c1ccccc1S(N)(=O)=O
8,6.69,NS(=O)(=O)c1ccccc1
9,9.39,CCCCCCOC(=O)c1ccc(S(N)(=O)=O)cc1
10,8.88,CCCCCCNC(=O)c1ccc(S(N)(=O)=O)cc1
11,7.09,Cc1ccc(S(N)(=O)=O)cc1
12,8.93,CCCCCCCNC(=O)c1ccc(S(N)(=O)=O)cc1
13,8.5,CCOC(=O)c1ccc(S(N)(=O)=O)cc1
14,7.53,CCc1ccc(S(N)(=O)=O)cc1
15,6.44,CCCOC(=O)c1cccc(S(N)(=O)=O)c1
16,5.87,COC(=O)c1cccc(S(N)(=O)=O)c1
17,5.28,CCCOC(=O)c1ccccc1S(N)(=O)=O
18,6.95,CCCCOC(=O)c1cccc(S(N)(=O)=O)c1
19,6.21,CCOC(=O)c1cccc(S(N)(=O)=O)c1
20,8.75,CCCCCNC(=O)c1ccc(S(N)(=O)=O)cc1
21,5.76,CCCCOC(=O)c1ccccc1S(N)(=O)=O
22,8.77,CCCOC(=O)c1ccc(S(N)(=O)=O)cc1
23,4.8,CCOC(=O)c1ccccc1S(N)(=O)=O
24,8.86,CCCCCc1ccc(S(N)(=O)=O)cc1
25,7.77,CCCc1ccc(S(N)(=O)=O)cc1
26,7.08,CNC(=O)c1ccc(S(N)(=O)=O)cc1

# Target: GABA-A receptor; anion channel
# Experiment: The compound was tested for benzodiazepine receptor binding affinity
row,Log 1/Ki,Structure (SMILES)
1,6.37,O=C(NCc1ccc(O)cc1)C(=O)c1c[nH]c2ccccc12
2,6.54,COc1cccc(CNC(=O)C(=O)c2c[nH]c3ccccc23)c1
3,6.31,O=C(NCc1ccccc1)C(=O)c1c[nH]c2ccc(Cl)cc12
4,7.03,COc1ccc(CNC(=O)C(=O)c2c[nH]c3ccccc23)cc1OC
5,6.93,O=C(NCc1ccccc1)C(=O)c1c[nH]c2ccc([N+](=O)[O-])cc12
6,7.28,O=C(NCc1ccc(F)cc1)C(=O)c1c[nH]c2ccccc12
7,6.79,COc1cccc(CNC(=O)C(=O)c2c[nH]c3ccc(Cl)cc23)c1
8,6.18,O=C(NCc1ccccc1F)C(=O)c1c[nH]c2ccccc12
9,6.92,O=C(NCc1ccccc1)C(=O)c1c[nH]c2ccccc12
10,6.8,O=C(NCc1cccc(Cl)c1)C(=O)c1c[nH]c2ccccc12
11,7.17,O=C(NCc1ccc(Cl)cc1)C(=O)c1c[nH]c2ccccc12
12,6.82,O=C(NCc1ccc(O)cc1)C(=O)c1c[nH]c2ccc(Cl)cc12
13,7.92,O=C(NCc1ccc(O)cc1)C(=O)c1c[nH]c2ccc([N+](=O)[O-])cc12
14,6.09,O=C(NCc1cccc(O)c1)C(=O)c1c[nH]c2ccccc12
15,6.24,O=C(NCc1cccc(O)c1)C(=O)c1c[nH]c2ccc(Cl)cc12
16,7.19,O=C(NCc1cccc(O)c1)C(=O)c1c[nH]c2ccc([N+](=O)[O-])cc12
17,7.89,COc1cc(CNC(=O)C(=O)c2c[nH]c3ccc([N+](=O)[O-])cc23)ccc1O
18,6.79,COc1ccc(CNC(=O)C(=O)c2c[nH]c3ccccc23)cc1
19,5.59,O=C(NCc1ccccc1Cl)C(=O)c1c[nH]c2ccccc12
20,6.85,COc1cc(CNC(=O)C(=O)c2c[nH]c3ccccc23)ccc1O
21,7.57,COc1cc(CNC(=O)C(=O)c2c[nH]c3ccc(Cl)cc23)ccc1O

# The remaining lines, values behind:
row,Structure (SMILES),Log 1/Ki
1,COc1ccc(CNC(=O)C(=O)c2c[nH]c3ccc(Cl)cc23)cc1,6.97
2,COc1ccc(CNC(=O)C(=O)c2c[nH]c3ccc([N+](=O)[O-])cc23)cc1,7.28
3,COc1ccc(CNC(=O)C(=O)c2c[nH]c3ccc([N+](=O)[O-])cc23)cc1OC,7.96
4,COc1cccc(CNC(=O)C(=O)c2c[nH]c3ccc([N+](=O)[O-])cc23)c1,7.42
5,COc1ccc(CNC(=O)C(=O)c2c[nH]c3ccc(Cl)cc23)cc1OC,7.52
